We go through twelve compounds from PMC8911944, “Screening of Natural Products Inhibitors of SARS-CoV-2 Entry” (Molecules, 2022).

In brackets after ≈: the same amount, converted by molar mass.

System in the first data set: not listed separately
As to the kind of experiment: Cytotoxicity assay, resazurin method. The data set is classed as cell-based. The settings on record: human, HEK293T-ACE2 cells, HEK-293T ACE2 cells, unit inferred. How it is done:
(§1) The maximum non-toxic concentration was assessed using the resazurin method. Briefly, HEK293T-ACE2 cells were cultured at 1 × 10^4 cells/well in a 96-well plate in the presence of different concentrations of the natural products. Vehicle (DMSO)-treated cells were used as a control and normalizer. Resazurin was added 48 h later, and after 3 h, cell viability was determined. Absorbance was measured on the MultiskanTM GO (ThermoScientific, Waltham, MA, USA) at 570 and 630 nm. The MNTC is the maximum concentration with a cytotoxicity lower than 10%.
For orientation: The colour change of resazurin is a common sign of viable cells or microbes.
For `C=C1CC/C=C(\C)CC[C@@H]2[C@@H]1CC2(C)C` [β-Caryophyllene], the midpoint of cytotoxicity, the CC50 at 48 h, lay at 183 µg/mL (≈ 896 µM).

Another data set relates to HEK293T-ACE2 cells. In words: Cytotoxicity assay, resazurin method. Conditions: maximum concentration with cytotoxicity lower than 10%. In kind it is cell-based. How it is done:
as §1
For the compound `CC1=C[C@H](O)[C@H]2C[C@@H]1C2(C)C` (relative stereo) [cis-Verbenol], the “MNTC (maximum non-toxic concentration)” value was 250 µg/mL.

On to `C/C=C/[C@H]1OC(=O)C=C[C@H]1OC(C)=O` [Acetylphomolactone], for which the “MNTC (maximum non-toxic concentration)” value is 4.5 µg/mL. Regarding `CC(=O)OC1C=CC(=O)OC1C1OC1C` (centres unmarked) [Asperline], the “MNTC (maximum non-toxic concentration)” value was 7.81 µg/mL. In the case of `CC(=O)C1COC(O)C1C` (centres unmarked) [Botryodiplodin], the “MNTC (maximum non-toxic concentration)” value turned out to be 3 µg/mL. Still for that read-out and setting: the value for `C=C1CC[C@H]2O[C@]2(C)CC[C@@H]2[C@@H]1CC2(C)C` [Caryophyllene Oxide] was 31.25 µg/mL; that for `C[C@H]1CC[C@@H](C(C)(C)O)CC2=C1CC[C@@H]2C` [Guaiol] was 33.3 µg/mL. As to `C=CC(C)(O)CCC=C(C)C` (centres unmarked) [Linalool], the “MNTC (maximum non-toxic concentration)” value was 125 µg/mL.

`CC(O)[C@@H]1NC(=O)c2cccn2C1=O` (some centres unmarked) [Macrophominol]: the “MNTC (maximum non-toxic concentration)” value amounted to 36 µg/mL. For the compound `C=C(C)[C@H]1CC=C(C)CC1` [R-Limonene], the “MNTC (maximum non-toxic concentration)” value is 31.25 µg/mL. On the same count and under the same terms, the value for `C=C1CC/C=C(\C)CC[C@@H]2[C@@H]1CC2(C)C` [β-Caryophyllene] was 125 µg/mL; that for Isoasperline was 7.19 µg/mL. Same read-out and setting: the value for S-Limonene was 31.25 µg/mL.

The test system of the next data set is pseudotyped virus carrying the vesicular stomatitis virus glycoprotein G (VSV-G).
Experiment: not given
The data set is classed as cell-based.
Details: not given
Regarding `C=C1CC/C=C(\C)CC[C@@H]2[C@@H]1CC2(C)C` [β-Caryophyllene], the “inhibitory activity against the entry of the VSV-G-pseudotyped virus” value is listed as “low inhibitory activity”.
